Test results reported in article PMC3786134 (ChemMedChem, 2012).

Columns and labels:
APOBEC3A (A3A) = APOBEC3A (A3A) (Homo sapiens, UniProt P31941); assay: fluorescence ssDNA C-to-U deaminase assay; type: biochemical
APOBEC3G (A3G) = APOBEC3G (A3G) (Homo sapiens, UniProt Q9HC16); assay: fluorescence ssDNA C-to-U deaminase assay; type: biochemical
Sequence of APOBEC3G (A3G) (Q9HC16 whole entry): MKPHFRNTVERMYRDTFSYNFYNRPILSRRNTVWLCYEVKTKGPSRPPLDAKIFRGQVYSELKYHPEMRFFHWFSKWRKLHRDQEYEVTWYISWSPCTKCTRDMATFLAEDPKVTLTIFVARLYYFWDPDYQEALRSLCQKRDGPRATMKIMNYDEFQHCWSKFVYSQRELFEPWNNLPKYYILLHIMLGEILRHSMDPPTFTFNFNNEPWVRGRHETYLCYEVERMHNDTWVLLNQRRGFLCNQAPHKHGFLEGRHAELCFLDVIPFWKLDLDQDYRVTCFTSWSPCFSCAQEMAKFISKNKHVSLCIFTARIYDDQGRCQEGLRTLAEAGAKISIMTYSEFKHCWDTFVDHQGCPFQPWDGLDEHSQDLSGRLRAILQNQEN

Sequence of APOBEC3A (A3A) (P31941 whole entry): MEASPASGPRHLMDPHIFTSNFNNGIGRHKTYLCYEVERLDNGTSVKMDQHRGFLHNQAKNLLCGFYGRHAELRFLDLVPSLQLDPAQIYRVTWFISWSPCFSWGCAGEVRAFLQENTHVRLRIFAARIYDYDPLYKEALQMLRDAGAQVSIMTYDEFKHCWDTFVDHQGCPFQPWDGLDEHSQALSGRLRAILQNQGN

Structure (SMILES): Cc1nnc(SCc2ccccc2)n1N [compound 11, 3-(benzylthio)-5-methyl-1,2,4-triazol-4-amine]
- IC50 (APOBEC3A (A3A)): > 100 µM

Structure (SMILES): Cc1nnc(S)n1N [compound 5, 4-amino-5-methyl-1,2,4-triazole-3-thiol]
- IC50 (APOBEC3A (A3A)): > 100 µM
- IC50 (APOBEC3G (A3G)): 6.1 ± 1.1 µM

Structure (SMILES): Cc1nnc(O)n1N [compound 7, 4-amino-5-methyl-1,2,4-triazol-3-ol]
- IC50 (APOBEC3A (A3A)): > 100 µM

Structure (SMILES): Nn1cnnc1S [compound 4, 4-amino-1,2,4-triazole-3-thiol]
- IC50 (APOBEC3A (A3A)): > 100 µM
- IC50 (APOBEC3G (A3G)): > 100 µM

Structure (SMILES): S=c1[nH]ncn1N=Cc1ccc(Br)cc1 [compound 1, 4-((4-bromobenzylidene)amino)-1,2,4-triazole-3-thiol]
- IC50 (APOBEC3A (A3A)): > 100 µM
- IC50 (APOBEC3G (A3G)): 4.3 ± 1.1 µM

Structure (SMILES): Cc1nnc(S)n1NC(=O)c1ccccc1 [compound 9, N-(3-mercapto-5-methyl-1,2,4-triazol-4-yl)benzamide]
- IC50 (APOBEC3A (A3A)): > 100 µM
- IC50 (APOBEC3G (A3G)): 8.2 ± 1.2 µM

Structure (SMILES): COc1ccc(C=Nn2c(C)nnc2S)cc1 [compound 8, 4-((4-methoxybenzylidene)amino)-5-methyl-1,2,4-triazole-3-thiol]
- IC50 (APOBEC3A (A3A)): > 100 µM
- IC50 (APOBEC3G (A3G)): 3.9 ± 1.2 µM
